# Measured values taken from patent US20050101595A1, “N-containing cycloalkyl-substituted amino-thiazole derivatives and pharmaceutical compositions for inhibiting cell proliferation and methods for their use” (PFIZER INC., priority 2003, published 2005).
# Where a name gives a salt, the structure may show the parent alone. Read-outs that look alike come from different tables or passages of the source.
# Legend:
# [1] = molecular target: CDK2/Cyclin A (Homo sapiens, UniProt P24941); assay: Inhibition of CDK2/Cyclin A Retinoblastoma Kinase Activity; format: biochemical; conditions: for Ki: apparent Ki, CDK2/proteolyzed cyclin A, Rb fragment substrate, 25 μM ATP
# How it was run: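 CDK2 (10 or 19 nM), insect-cell expressed, gel-filtration purified with truncated cyclin A; Rb fragment substrate; 25 μM ATP; 10 mM HEPES pH 7.4, 10 mM MgCl2; 30° C, 60 or 75 min; EDTA stop; phosphocellulose/nitrocellulose capture, phosphorimager. % inhibition vs DMSO control, no-enzyme background subtracted.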
# [2] = molecular target: human CDK4 and genetically truncated (1-264) cyclin D3 (Homo sapiens, UniProt P11802); assay: Inhibition of CDK4/Cyclin D Retinoblastoma Kinase Activity; format: biochemical; conditions: for Ki: apparent Ki, CDK4/truncated cyclin D3, Rb fragment substrate, 25 μM ATP
# How it was run: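 The enzyme complex (5 nM), expressed in co-infected insect cells, was incubated with recombinant Rb fragment, 25 μM radiolabelled ATP and 2% DMSO at 30 °C. Reactions were stopped with EDTA after 20 minutes, or 60 minutes for tight-binding inhibitors. Apparent Ki values came from competitive inhibition fits.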
# [3] = test system: HCT-116 cell line; assay: Inhibition of cell growth, tetrazolium salt (MTT) assay; format: cell-based; conditions: for IC50: Homo sapiens, HCT-116, 120 h, MTT, three to five days, read-out: HCT-116 IC50; for HCT-116 % Inhibition at 0.25 μM: 0.25 μM compound
# How it was run: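 McCoy's 5A cultures; 4 h pre-incubation; compound dilutions in 0.5% v/v DMSO; 3–5 d, 37° C, 5% CO2; MTT 0.2 mg/mL final, 4 h; formazan dissolved in DMSO, A540; vs 0.5% DMSO vehicle.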
# [4] = 0.1 μM compound, HCT-116, Table 4
# Chain of human CDK4 and genetically truncated (1-264) cyclin D3 (P11802 whole entry, the tested form may be a part): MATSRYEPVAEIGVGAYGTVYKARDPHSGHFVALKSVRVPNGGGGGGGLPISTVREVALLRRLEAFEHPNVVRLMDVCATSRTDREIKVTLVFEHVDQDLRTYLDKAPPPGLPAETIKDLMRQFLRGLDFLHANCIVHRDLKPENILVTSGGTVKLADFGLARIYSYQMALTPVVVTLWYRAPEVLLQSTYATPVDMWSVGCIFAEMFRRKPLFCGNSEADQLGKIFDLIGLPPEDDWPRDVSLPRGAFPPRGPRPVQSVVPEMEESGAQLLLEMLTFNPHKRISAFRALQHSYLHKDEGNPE
# Chain of human CDK4 and genetically truncated (1-264) cyclin D3 (P30281 1-264 partner): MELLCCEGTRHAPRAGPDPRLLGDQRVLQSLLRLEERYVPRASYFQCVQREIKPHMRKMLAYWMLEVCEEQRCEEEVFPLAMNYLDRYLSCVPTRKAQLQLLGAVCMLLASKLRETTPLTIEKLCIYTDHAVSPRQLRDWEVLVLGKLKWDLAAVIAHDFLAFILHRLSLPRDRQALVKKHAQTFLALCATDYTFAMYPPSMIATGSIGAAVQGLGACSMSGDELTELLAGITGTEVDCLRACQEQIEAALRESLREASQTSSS
SMILES,Ki [1] [nM],Ki [2] [nM],IC50 ([3]; first HCT-116 column (c4)) [nM],IC50 ([3]; second HCT-116 column (c5)) [nM],CDK2 % Inhibition at 0.03 μM ([1]; at 0.03 μM) [%],CDK4 % Inhibition at 0.03 μM ([2]; at 0.03 μM) [%],"HCT-116 % Inhibition at 0.1 μM ([3]; HCT-116 cells, at 0.1 μM) [%]",HCT-116 5 Inhibition at 0.25 μM ([3]; HCT-116 cells),other results
"CN(CCS(=O)(=O)N1CCC(Nc2nc(N)c(C(=O)c3c(F)cccc3F)s2)CC1)C1CCCC1 [Example K30, (4-Amino-2-{1-[2-(cyclopentyl-methyl-amino)-ethanesulfonyl]-piperidin-4-ylamino}-thiazol-5-yl)-(2,6-difluoro-phenyl)-methanone Trifluoroacetic Acid Salt.]",9.4,2.4,190,620,–,–,–,–,–
Nc1nc(NC2CCN(C(=O)Oc3ccc(Cl)cc3)CC2)sc1C(=O)c1c(F)cccc1F [Example Q5],–,–,–,–,–,–,–,–,"CDK2 % Inhibition at 0.03 μM ([1]; 0.03 μM compound, Table 4): 45%; CDK4 % Inhibition at 0.03 μM ([2]; 0.03 μM compound, Table 4): 81%; HCT-116 % Inhibition at 0.1 μM [3, 4]: 0.81%; HCT-116 % Inhibition at 0.25 μM ([3]; HCT-116, Table 4): 36%"
CC(C)=CCCC(C)CC(=O)N1CCC(Nc2nc(N)c(C(=O)c3c(F)cccc3F)s2)CC1 (stereo not shown) [Example R170],–,–,–,–,21,22,0,23,–
Nc1nc(NC2CCN(C(=O)c3cccc([N+](=O)[O-])c3)CC2)sc1C(=O)c1c(F)cccc1F [Example Q69],–,–,–,–,–,–,–,–,"CDK2 % Inhibition at 0.03 μM ([1]; 0.03 μM compound, Table 4): 54%; CDK4 % Inhibition at 0.03 μM ([2]; 0.03 μM compound, Table 4): 80%; HCT-116 % Inhibition at 0.1 μM [3, 4]: 1%; HCT-116 % Inhibition at 0.25 μM ([3]; HCT-116, Table 4): 24%"
CCCC(CCC)C(=O)N1CCC(Nc2nc(N)c(C(=O)c3c(F)cccc3F)s2)CC1 [Example R166],–,–,–,–,17,37,0,44,–
Nc1nc(NC2CCN(C(=O)c3ccc(OC(F)(F)F)cc3)CC2)sc1C(=O)c1c(F)cccc1F [Example R22],–,–,–,–,22,58,7,48,–
CC(C(=O)N1CCC(Nc2nc(N)c(C(=O)c3c(F)cccc3F)s2)CC1)c1ccccc1 (stereo not shown) [Example R160],–,–,–,–,7,6,0,37,–
CNc1ccccc1C(=O)N1CCC(Nc2nc(N)c(C(=O)c3c(F)cccc3F)s2)CC1 [Example R112],–,–,–,–,12,21,39,93,–
Nc1nc(NC2CCN(C(=O)c3c(F)cc(F)cc3F)CC2)sc1C(=O)c1c(F)cccc1F [Example R53],–,–,–,–,24,32,0,30,–
Nc1nc(NC2CCN(S(=O)(=O)c3c(Cl)cc(C(F)(F)F)cc3Cl)CC2)sc1C(=O)c1c(F)cccc1F [Example P82],–,–,–,–,–,–,–,–,"CDK2 % Inhibition at 0.03 μM ([1]; 0.03 μM compound, Table 3): −23%; CDK4 % Inhibition at 0.03 μM ([2]; 0.03 μM compound, Table 3): 12%; HCT-116 % Inhibition at 0.1 μM ([3]; 0.1 μM compound, HCT-116, Table 3): 17%; HCT-116 % Inhibition at 0.25 μM ([3]; HCT-116, Table 3): 24%"
"COCCNCCS(=O)(=O)N1CCC(Nc2nc(N)c(C(=O)c3c(F)cccc3F)s2)CC1 [Example K25, (4-Amino-2-{1-[2-(2-methoxy-ethylamino}-ethanesulfonyl]-piperidin-4-ylamino}-thiazol-5-yl)-(2,6-difluoro-phenyl)-methanone Trifluoroacetic Acid Salt.]",4.4,1.4,880,2600,–,–,–,–,–
"Nc1nc(NC2CCN(C(=O)c3ccc(I)cc3)CC2)sc1C(=O)c1c(F)cccc1F [Example C1, {4-Amino-2-[1-(4-iodo-benzoyl)-piperidin-4-ylamino]-thiazol-5-yl}-(2,6-difluoro-phenyl)-methanone]",68,11,1200,2300,–,–,–,–,–
"COc1ccc(/C=C/C(=O)N2CCC(Nc3nc(N)c(C(=O)c4c(F)cccc4F)s3)CC2)c(Cl)c1OC [Example C7, 1-{4-[4-Amino-5-(2,6-difluoro-benzoyl)-thiazol-2-ylamino]-piperidin-1-yl}-3-(2-chloro-3,4-dimethoxy-phenyl)-propenone]",32,40,600,1600,–,–,–,–,–
